molecular target: T1, human recombinant GPR65 (Homo sapiens, UniProt Q8IYL9); assay: Human GPR65 cAMP HTRF antagonist assay; assay type: cell-based; conditions: 1321N1-hrGPR65 cells, assay pH 7.2, cAMP HTRF; read-out: hGPR65 IC50
T1 construct: host or cells: 1321N1 human astrocytoma cells (1321N1-hrGPR65)
Description: The “Human GPR65 cyclic adenosine monophosphate (cAMP) Homogeneous Time Resolved Fluorescence (HTRF) antagonist assay”, or simply “cAMP assay”, as described in the accompanying examples, can be used to measure the potency of GPR65 modulators, which is expressed as the concentration of compound required to reduce the increase in cAMP concentration upon GPR65 activation by 50% (i.e. an IC50).
Human GPR65 Cyclic Adenosine Monophosphate (cAMP) Homogeneous Time Resolved Fluorescence (HTRF) Antagonist Assay Procedure
IC50data was obtained by the following procedure:
1321N1 human astrocytoma cells stably expressing human recombinant GPR65 (1321N1-hrGPR65 cells, EuroscreenFast) were cultured according to the vendor's instructions.
Compounds were tested for their ability to antagonise GPR65, through measuring the concentration of cytoplasmic cAMP following treatment of the cells at a pH of 7.2 to activate GPR65 signalling and addition of the compound to be tested. The extent to which the expected rise in cAMP concentration upon GPR65 activation was suppressed by the added compound is indicative of its potency. The assay was carried out according to EuroscreenFast assay Methodology as follows.
On the day of the assay, test compounds were added to 384-well, low volume, white microtiter plates by acoustic dispensing. KRH buffer (5 mM KCl, 1.25 mM MgSO4, 124 mM NaCl, 25 mM HEPES, 13.3 mM Glucose, 1.25 mM KH2PO4 and 1.45 mM CaCl2) was adjusted to pH 6.5, pH 7.6 and pH 8.4 by adding NaOH. 1321N1-hGPR65 cells were rapidly thawed and diluted in KRH, pH 7.6 prior to centrifugation at 300×g for 5 min and resuspension in assay buffer (KRH, pH 7.6, supplemented with 1 mM 3-isobutyl-1-methylxanthine (IBMX) and 200 μM ethylenediaminetetraacetic acid (EDTA)). Cells were added to assay plates at a density of 2,000 cells per well in a volume of […]. Assay plates were briefly centrifuged at 100×g and then incubated at room temperature for 30 min. Cells were stimulated by the addition of 5 μL KRH, pH 6.5, to achieve an assay pH of 7.2, while control wells received […] KRH, pH 8.4 to achieve an assay pH of 7.9. Assay plates were briefly centrifuged at 100×g and then incubated at room temperature for 30 min.
Accumulation of cAMP was detected by cAMP HTRF kit (Cisbio). d2-labeled cAMP and cryptate-labeled anti-cAMP antibody in Lysis and Detection Buffer (Cisbio) were added to assay plates, and the plates were incubated at room temperature for 1 h. HTRF measurements were performed using a Pherastar FSX instrument. Acceptor and donor emission signals were measured at 665 nm and 620 nm, respectively, and HTRF ratios were calculated as signal665 nm/signal620 nm×104. Data were normalised to high and low control values and fitted with 4-parameter logistic regression to determine hGPR65 IC50 values for the test compounds, which are shown in Table 1.

T1 sequence (Q8IYL9 whole entry): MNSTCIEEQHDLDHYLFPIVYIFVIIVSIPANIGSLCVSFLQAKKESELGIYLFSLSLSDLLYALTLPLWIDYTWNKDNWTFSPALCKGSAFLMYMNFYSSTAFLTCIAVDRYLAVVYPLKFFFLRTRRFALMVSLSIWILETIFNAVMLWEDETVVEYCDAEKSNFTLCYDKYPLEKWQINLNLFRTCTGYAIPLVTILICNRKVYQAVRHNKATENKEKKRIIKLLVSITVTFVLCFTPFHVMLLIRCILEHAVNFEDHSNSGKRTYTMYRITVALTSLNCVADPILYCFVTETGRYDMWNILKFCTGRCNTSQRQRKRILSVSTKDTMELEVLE

| SMILES | IC50 |
| --- | --- |
| O=C(Nc1cc(Cl)c(-c2ccc3nonc3c2)cn1)N1C2CCC1[C@H](F)c1c2ccnc1F (mixture of isomers) [Compound 5, (±,9S)-N-(5-(benzo[c][1,2,5]oxadiazol-5-yl)-4-chloropyridin-2-yl)-1,9-difluoro-6,7,8,9-tetrahydro-5H-5,8-epiminocyclohepta[c]pyridine-10-carboxamide] | < 500 nM |
| O=C(Nc1cc(Cl)c(C(F)(F)F)cn1)N1C2CCC1[C@H](F)c1c2ccnc1F (mixture of isomers) [Compound 33, (±)(9S)-N-(4-chloro-5-(trifluoromethyl)pyridin-2-yl)-1,9-difluoro-6,7,8,9-tetrahydro-5H-5,8-epiminocyclohepta[c]pyridine-10-carboxamide] | < 500 nM |
| O=C(Nc1cc(Cl)c(C(F)(F)F)cn1)N1C2CCC1C(F)(F)c1c2ccnc1F (racemic) [Compound 34, (±)-N-(4-chloro-5-(trifluoromethyl)pyridin-2-yl)-1,9,9-trifluoro-6,7,8,9-tetrahydro-5H-5,8-epiminocyclohepta[c]pyridine-10-carboxamide] | < 500 nM |
| O=C(Nc1cc(Cl)c(Cl)cn1)N1C2CCC1[C@H](F)c1c2ccnc1F (mixture of isomers) [Compound 35, (±)(9S)-N-(4,5-dichloropyridin-2-yl)-1,9-difluoro-6,7,8,9-tetrahydro-5H-5,8-epiminocyclohepta[c]pyridine-10-carboxamide] | < 500 nM |
| O=C(Nc1cc(Cl)c(Cl)cn1)N1C2CCC1C(F)(F)c1c2ccnc1F (racemic) [Compound 36, (±)-N-(4,5-dichloropyridin-2-yl)-1,9,9-trifluoro-6,7,8,9-tetrahydro-5H-5,8-epiminocyclohepta[c]pyridine-10-carboxamide] | < 500 nM |
| O=C(Nc1cc(Cl)c(-c2ccc(OCC(F)(F)F)nc2)cc1F)N1C2CCC1C(F)(F)c1c2ccnc1F (racemic) [Compound 70, (±)-N-(5-Chloro-2-fluoro-4-(6-(2,2,2-trifluoroethoxy)pyridin-3-yl)phenyl)-1,9,9-trifluoro-6,7,8,9-tetrahydro-5H-5,8-epiminocyclohepta[c]pyridine-10-carboxamide] | < 500 nM |
| O=C(Nc1cc(Cl)c(-c2ccc(OC[C@@H]3CCOC3)nc2)cc1F)N1[C@H]2CC[C@@H]1c1c[nH]c(=O)cc1C2 (single isomer, unassigned) [Compound 47] | < 500 nM |
| O=C(Nc1cc(Cl)c(-c2ccc(OC[C@H]3CCOC3)nc2)cc1F)N1[C@H]2CC[C@@H]1c1c[nH]c(=O)cc1C2 (single isomer, unassigned) [Compound 48] | < 500 nM |
| O=C(Nc1cc(Cl)c(-c2ccc(O[C@@H]3CCN(CC(F)(F)F)C3)nc2)cc1F)N1[C@H]2CC[C@@H]1c1c[nH]c(=O)cc1C2 (single isomer, unassigned) [Compound 77] | < 500 nM |
| O=C(Nc1cc(Cl)c(-c2ccc(O[C@H]3CCN(CC(F)(F)F)C3)nc2)cc1F)N1[C@H]2CC[C@@H]1c1c[nH]c(=O)cc1C2 (single isomer, unassigned) [Compound 78] | < 500 nM |
| O=C(Nc1cc(Cl)c(-c2ccc(OCC34COC(C3)C4)nc2)cc1F)N1[C@H]2CC[C@@H]1c1n[nH]c(=O)cc1C2 [Compound 1, (6S,9R)-N-(4-(6-((2-oxabicyclo[2.1.1]hexan-4-yl)methoxy)pyridin-3-yl)-5-chloro-2-fluorophenyl)-3-oxo-3,5,6,7,8,9-hexahydro-2H-6,9-epiminocyclohepta[c]pyridazine-10-carboxamide] | < 500 nM |
| O=C(Nc1cc(Cl)c(-c2ccc(NCC(F)(F)F)nc2)cc1F)N1[C@H]2CC[C@@H]1c1n[nH]c(=O)cc1C2 [Compound 2, (6S,9R)-N-(5-chloro-2-fluoro-4-(6-((2,2,2-trifluoroethyl)amino)pyridin-3-yl)phenyl)-3-oxo-3,5,6,7,8,9-hexahydro-2H-6,9-epiminocyclohepta[c]pyridazine-10-carboxamide] | < 500 nM |
| CN(CC(F)(F)F)c1ccc(-c2cc(F)c(NC(=O)N3[C@H]4CC[C@@H]3c3n[nH]c(=O)cc3C4)cc2Cl)cn1 [Compound 3, (6S,9R)-N-(5-chloro-2-fluoro-4-(6-(methyl(2,2,2-trifluoroethyl)amino)pyridin-3-yl)phenyl)-3-oxo-3,5,6,7,8,9-hexahydro-2H-6,9-epiminocyclohepta[c]pyridazine-10-carboxamide] | < 500 nM |
| O=C(Nc1cc(Cl)c(-c2ccc(OCC(F)(F)F)nn2)cc1F)N1[C@H]2CC[C@@H]1c1n[nH]c(=O)cc1C2 [Compound 6, (6S,9R)-N-(5-chloro-2-fluoro-4-(6-(2,2,2-trifluoroethoxy)pyridazin-3-yl)phenyl)-3-oxo-3,5,6,7,8,9-hexahydro-2H-6,9-epiminocyclohepta[c]pyridazine-10-carboxamide] | < 500 nM |
| O=C(NC12CC(c3ccc(OCC(F)(F)F)nc3)(C1)C2)N1[C@H]2CC[C@@H]1c1n[nH]c(=O)cc1C2 [Compound 7, (6S,9R)-3-Oxo-N-(3-(6-(2,2,2-trifluoroethoxy)pyridin-3-yl)bicyclo[1.1.1]pentan-1-yl)-3,5,6,7,8,9-hexahydro-2H-6,9-epiminocyclohepta[c]pyridazine-10-carboxamide] | 500 to 5000 nM |
| CN(CC(F)(F)F)c1ccc(-c2cc(F)c(NC(=O)N3[C@H]4CC[C@@H]3c3c[nH]c(=O)cc3C4)cc2Cl)cn1 [Compound 8, (6S,9R)-N-(5-chloro-2-fluoro-4-(6-(methyl(2,2,2-trifluoroethyl)amino)pyridin-3-yl)phenyl)-3-oxo-3,5,6,7,8,9-hexahydro-2H-6,9-epiminocyclohepta[c]pyridine-10-carboxamide] | < 500 nM |
| CN(C(=O)N1[C@H]2CC[C@@H]1c1n[nH]c(=O)cc1C2)c1cc(Cl)c(-c2ccc(OCC(F)(F)F)nc2)cc1F [Compound 9, (6S,9R)-N-(5-chloro-2-fluoro-4-(6-(2,2,2-trifluoroethoxy)pyridin-3-yl)phenyl)-N-methyl-3-oxo-3,5,6,7,8,9-hexahydro-2H-6,9-epiminocyclohepta[c]pyridazine-10-carboxamide] | 500 to 5000 nM |
| O=C(Nc1cc(Cl)c(-c2ccc(OC3CCCC3)nc2)cc1F)N1[C@H]2CC[C@@H]1c1c[nH]c(=O)cc1C2 [Compound 10, (6S,9R)-N-(5-chloro-4-(6-(cyclopentyloxy)pyridin-3-yl)-2-fluorophenyl)-3-oxo-3,5,6,7,8,9-hexahydro-2H-6,9-epiminocyclohepta[c]pyridine-10-carboxamide] | < 500 nM |
| O=C(Nc1cc(Cl)c(-c2cnc(OCC(F)(F)F)c(F)c2)cc1F)N1[C@H]2CC[C@@H]1c1c[nH]c(=O)cc1C2 [Compound 11, (6S,9R)-N-(5-chloro-2-fluoro-4-(5-fluoro-6-(2,2,2-trifluoroethoxy)pyridin-3-yl)phenyl)-3-oxo-3,5,6,7,8,9-hexahydro-2H-6,9-epiminocyclohepta[c]pyridine-10-carboxamide] | < 500 nM |
| O=C(Nc1cc(Cl)c(-c2ccc(OCC(F)(F)F)nn2)cc1F)N1[C@H]2CC[C@@H]1c1c[nH]c(=O)cc1C2 [Compound 12, (6S,9R)-N-(5-chloro-2-fluoro-4-(6-(2,2,2-trifluoroethoxy)pyridazin-3-yl)phenyl)-3-oxo-3,5,6,7,8,9-hexahydro-2H-6,9-epiminocyclohepta[c]pyridine-10-carboxamide] | < 500 nM |

— US20260285863A1, “COMPOUNDS CAPABLE OF MODULATING GPR65” (Pathios Therapeutics Limited, priority 2023, published 2026)
